ChEMBL document CHEMBL4665798, “Novel Human Urate Transporter 1 Inhibitors as Hypouricemic Drug Candidates with Favorable Druggability” (J Med Chem, 2020)

Key:
[1] = Sub-acute toxicity in Kunming mouse assessed as hepatocellular condensation of liver at 50 mg/kg, po administered as single dose every other day for 14 days by H and E staining based assay; assay type: organism-based; settings: in vivo, 336 h, time 14 day
[2] = Sub-acute toxicity in Kunming mouse assessed as ballooning degeneration of liver at 50 mg/kg, po administered as single dose every other day for 14 days by H and E staining based assay; assay type: organism-based; settings: in vivo, 336 h, time 14 day
[3] = Sub-acute toxicity in Kunming mouse assessed as congestion in hepatic central vein at 50 mg/kg, po administered as single dose every other day for 14 days by H and E staining based assay; assay type: organism-based; settings: in vivo, 336 h, time 14 day
[4] = Sub-acute toxicity in Kunming mouse assessed as hydropic degeneration of hepatocytes at 50 mg/kg, po administered as single dose every other day for 14 days by H and E staining based assay; assay type: organism-based; settings: in vivo, 336 h, time 14 day
[5] = Sub-acute toxicity in female Kunming mouse assessed as increase in body weight at 50 mg/kg, po administered once every second day for 14 days; assay type: organism-based; settings: in vivo, 336 h, time 14 day
[6] = Sub-acute toxicity in male Kunming mouse assessed as increase in body weight at 50 mg/kg, po administered once every second day for 14 days; assay type: organism-based; settings: in vivo, 336 h, time 14 day
[7] = Acute toxicity in female Kunming mouse assessed as change in body weight at 500 mg/kg, ig measured for 1 week; assay type: organism-based; settings: in vivo, po, 168 h, time 1 weeks
[8] = Acute toxicity in Kunming mouse assessed as induction of abnormal behaviors by measuring lethargy at 500 mg/kg, ig; assay type: organism-based; settings: in vivo, po
[9] = Acute toxicity in male Kunming mouse assessed as change in body weight at 500 mg/kg, ig measured for 1 week; assay type: organism-based; settings: in vivo, po, 168 h, time 1 weeks
[10] = Acute toxicity in Kunming mouse assessed as induction of abnormal behaviors by measuring clonic convulsion at 500 mg/kg, ig; assay type: organism-based; settings: in vivo, po
[11] = Acute toxicity in Kunming mouse assessed as induction of abnormal behaviors by measuring anorexia at 500 mg/kg, ig; assay type: organism-based; settings: in vivo, po
[12] = Acute toxicity in Kunming mouse assessed as death at 500 mg/kg, ig measured for 1 week; assay type: organism-based; settings: in vivo, po, 168 h, time 1 weeks
[13] = Clearance in Sprague-Dawley rat at 1 mg/kg, iv by LC-MS analysis; assay type: ADME, organism-based; settings: in vivo
[14] = MRT (0 to infinity) in Sprague-Dawley rat at 1 mg/kg, iv by LC-MS analysis; assay type: ADME, organism-based; settings: in vivo
[15] = AUC (0 to infinity) in Sprague-Dawley rat at 1 mg/kg, iv by LC-MS analysis; assay type: ADME, organism-based; design: time infinity, route intravenous, dose 1 mg/kg; settings: in vivo
[16] = AUC (0 to t) in Sprague-Dawley rat at 1 mg/kg, iv by LC-MS analysis; assay type: ADME, organism-based; design: dose 1 mg/kg; settings: in vivo
Cytochrome P450 3A4 = Cytochrome P450 3A4 (Homo sapiens, UniProt P08684); assay: Inhibition of CYP3A4 in human liver microsome using midazolam as substrate measured after 20 mins in presence of NADPH by LC-MS/MS analysis
Chain of Cytochrome P450 3A4 (P08684 whole entry): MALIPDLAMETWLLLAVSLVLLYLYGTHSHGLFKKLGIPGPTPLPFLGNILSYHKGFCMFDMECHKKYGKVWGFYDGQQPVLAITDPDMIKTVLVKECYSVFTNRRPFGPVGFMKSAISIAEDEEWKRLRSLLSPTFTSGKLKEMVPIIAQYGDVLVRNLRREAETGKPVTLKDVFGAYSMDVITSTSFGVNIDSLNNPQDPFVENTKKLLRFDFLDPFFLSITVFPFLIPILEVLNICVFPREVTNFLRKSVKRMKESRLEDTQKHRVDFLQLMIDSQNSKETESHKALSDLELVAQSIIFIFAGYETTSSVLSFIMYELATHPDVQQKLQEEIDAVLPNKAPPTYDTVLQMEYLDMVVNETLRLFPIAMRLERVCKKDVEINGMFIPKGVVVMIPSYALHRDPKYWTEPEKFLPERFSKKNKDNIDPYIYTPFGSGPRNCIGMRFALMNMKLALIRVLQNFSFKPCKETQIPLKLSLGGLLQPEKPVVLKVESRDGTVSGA

Cytochrome P450 2D6 = Cytochrome P450 2D6 (Homo sapiens, UniProt P10635); assay: Inhibition of CYP2D6 in human liver microsome using probe substrate measured after 20 mins in presence of NADPH by LC-MS/MS analysis
Chain of Cytochrome P450 2D6 (P10635 whole entry): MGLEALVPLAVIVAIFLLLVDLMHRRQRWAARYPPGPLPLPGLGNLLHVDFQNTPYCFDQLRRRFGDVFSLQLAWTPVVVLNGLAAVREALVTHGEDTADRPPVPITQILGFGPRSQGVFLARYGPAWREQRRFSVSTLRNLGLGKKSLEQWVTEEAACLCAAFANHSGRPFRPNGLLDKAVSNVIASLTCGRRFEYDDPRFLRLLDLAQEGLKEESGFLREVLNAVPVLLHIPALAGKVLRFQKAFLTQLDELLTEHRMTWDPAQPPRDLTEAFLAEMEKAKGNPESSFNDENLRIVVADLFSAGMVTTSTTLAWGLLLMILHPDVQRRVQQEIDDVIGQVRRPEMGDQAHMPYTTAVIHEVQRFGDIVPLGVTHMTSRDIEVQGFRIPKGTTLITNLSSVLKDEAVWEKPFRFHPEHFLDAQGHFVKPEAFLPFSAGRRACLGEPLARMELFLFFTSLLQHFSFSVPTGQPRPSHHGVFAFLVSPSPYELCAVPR

Cytochrome P450 2C19 = Cytochrome P450 2C19 (Homo sapiens, UniProt P33261); assay: Inhibition of CYP2C19 in human liver microsome using probe substrate measured after 20 mins in presence of NADPH by LC-MS/MS analysis
Chain of Cytochrome P450 2C19 (P33261 whole entry): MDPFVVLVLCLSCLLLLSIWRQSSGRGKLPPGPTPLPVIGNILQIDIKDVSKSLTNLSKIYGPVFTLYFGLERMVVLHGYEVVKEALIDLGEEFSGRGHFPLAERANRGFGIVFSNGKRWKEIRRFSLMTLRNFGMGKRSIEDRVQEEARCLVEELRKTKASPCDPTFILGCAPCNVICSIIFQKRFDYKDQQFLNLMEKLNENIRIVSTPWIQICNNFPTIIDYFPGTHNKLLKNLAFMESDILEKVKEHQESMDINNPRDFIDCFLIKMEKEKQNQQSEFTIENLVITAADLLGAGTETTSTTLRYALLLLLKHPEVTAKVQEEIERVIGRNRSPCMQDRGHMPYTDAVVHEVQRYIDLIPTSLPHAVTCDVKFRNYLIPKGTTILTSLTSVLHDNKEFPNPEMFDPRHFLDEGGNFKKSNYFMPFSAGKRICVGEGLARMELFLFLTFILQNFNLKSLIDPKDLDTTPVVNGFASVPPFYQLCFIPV

Cytochrome P450 2C9 = Cytochrome P450 2C9 (Homo sapiens, UniProt P11712); assay: Inhibition of CYP2C9 in human liver microsome using probe substrate measured after 20 mins in presence of NADPH by LC-MS/MS analysis
Chain of Cytochrome P450 2C9 (P11712 whole entry): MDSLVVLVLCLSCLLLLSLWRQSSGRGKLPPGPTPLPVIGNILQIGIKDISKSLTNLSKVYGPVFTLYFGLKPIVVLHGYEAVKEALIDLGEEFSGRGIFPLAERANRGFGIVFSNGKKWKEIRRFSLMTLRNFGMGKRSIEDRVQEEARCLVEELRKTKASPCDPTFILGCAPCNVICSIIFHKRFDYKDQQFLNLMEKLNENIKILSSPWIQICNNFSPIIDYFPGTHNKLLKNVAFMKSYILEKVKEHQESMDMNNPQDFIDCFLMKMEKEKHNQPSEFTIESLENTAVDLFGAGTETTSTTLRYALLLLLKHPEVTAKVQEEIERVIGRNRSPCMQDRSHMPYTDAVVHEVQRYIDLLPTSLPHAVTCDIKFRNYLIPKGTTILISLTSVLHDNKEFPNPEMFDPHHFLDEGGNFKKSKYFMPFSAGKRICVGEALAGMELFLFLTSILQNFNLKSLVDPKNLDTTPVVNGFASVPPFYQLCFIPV

Cytochrome P450 1A2 = target: T1, Cytochrome P450 1A2 (Homo sapiens, UniProt P05177); assay: Inhibition of CYP1A2 in human liver microsome using probe substrate measured after 20 mins in presence of NADPH by LC-MS/MS analysis
T1 sequence (P05177 whole entry): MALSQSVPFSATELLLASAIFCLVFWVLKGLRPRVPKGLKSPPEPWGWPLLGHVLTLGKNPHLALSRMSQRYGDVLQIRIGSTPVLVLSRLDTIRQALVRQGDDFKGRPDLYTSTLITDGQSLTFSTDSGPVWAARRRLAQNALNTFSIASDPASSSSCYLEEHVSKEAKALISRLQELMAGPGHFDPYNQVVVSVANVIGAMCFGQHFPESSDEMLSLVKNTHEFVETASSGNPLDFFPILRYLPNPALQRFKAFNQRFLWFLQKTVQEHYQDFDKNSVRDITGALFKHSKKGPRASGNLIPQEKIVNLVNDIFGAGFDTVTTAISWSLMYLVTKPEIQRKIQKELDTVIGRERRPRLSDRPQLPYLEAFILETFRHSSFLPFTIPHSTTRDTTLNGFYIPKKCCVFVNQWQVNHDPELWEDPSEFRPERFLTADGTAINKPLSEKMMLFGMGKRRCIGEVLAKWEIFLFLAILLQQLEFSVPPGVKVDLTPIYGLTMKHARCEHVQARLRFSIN

[17] = target: T2, Solute carrier family 22 member 12 (Homo sapiens, UniProt Q96S37); assay: Inhibition of human URAT1 expressed in HEK293T cells assessed as reduction in [14C]uric acid uptake preincubated for 15 mins followed by [14C]uric acid addition by liquid scintillation counting method; assay type: cell-based
T2 sequence (Q96S37 whole entry): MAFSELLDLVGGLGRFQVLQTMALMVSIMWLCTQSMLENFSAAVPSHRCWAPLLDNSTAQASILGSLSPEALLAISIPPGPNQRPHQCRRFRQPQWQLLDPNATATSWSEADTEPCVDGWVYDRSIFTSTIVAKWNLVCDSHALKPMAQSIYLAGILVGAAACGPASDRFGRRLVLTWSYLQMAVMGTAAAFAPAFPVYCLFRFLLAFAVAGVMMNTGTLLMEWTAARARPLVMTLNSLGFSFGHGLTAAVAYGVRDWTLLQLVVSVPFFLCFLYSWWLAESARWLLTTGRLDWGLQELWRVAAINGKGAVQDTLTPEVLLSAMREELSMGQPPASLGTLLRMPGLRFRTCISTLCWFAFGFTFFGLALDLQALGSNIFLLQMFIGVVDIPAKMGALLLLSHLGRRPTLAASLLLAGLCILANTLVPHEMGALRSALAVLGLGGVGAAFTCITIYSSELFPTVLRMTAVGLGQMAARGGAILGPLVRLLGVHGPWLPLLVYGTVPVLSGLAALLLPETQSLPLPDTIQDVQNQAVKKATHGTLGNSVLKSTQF

[18] = Sub-acute toxicity in Kunming mouse assessed as death at 50 mg/kg, po administered once every second day for 14 days; assay type: organism-based; settings: in vivo, 336 h, time 14 day
[19] = Sub-acute toxicity in Kunming mouse assessed as lethargy at 50 mg/kg, po administered once every second day for 14 days; assay type: organism-based; settings: in vivo, 336 h, time 14 day
[20] = Sub-acute toxicity in Kunming mouse assessed as clonic convulsion at 50 mg/kg, po administered once every second day for 14 days; assay type: organism-based; settings: in vivo, 336 h, time 14 day
[21] = Sub-acute toxicity in Kunming mouse assessed as anorexia at 50 mg/kg, po administered once every second day for 14 days; assay type: organism-based; settings: in vivo, 336 h, time 14 day
[22] = Sub-acute toxicity in Kunming mouse assessed as appearance of ruffled fur at 50 mg/kg, po administered once every second day for 14 days; assay type: organism-based; settings: in vivo, 336 h, time 14 day

Row | Compound | Activity [1] | Activity [2] | Activity [3] | Activity [4] | Activity [5] | Activity [6] | Activity [7] | Activity [8] | Activity [9] | Activity [10] | Activity [11] | Activity [12] | clearance [13] | MRT inf [14] | AUC(0-inf) [15] | AUC(0-t) [16] | IC50 (Cytochrome P450 3A4) | IC50 (Cytochrome P450 2D6) | IC50 (Cytochrome P450 2C19) | IC50 (Cytochrome P450 2C9) | other results
1 | O=C(CSc1nnc(Br)n1-c1ccc(C2CC2)c2ccccc12)NS(=O)(=O)c1ccc(Br)cc1 | Non-Toxic | Non-Toxic | Non-Toxic | Non-Toxic | Non-Toxic | Non-Toxic | Non-Toxic | Non-Toxic | Non-Toxic | Non-Toxic | Non-Toxic | Non-Toxic | 5.46 mL/min/kg | 4.3 h | 3090 ng·h/mL | 3030 ng·h/mL | > 50 µM | > 50 µM | 20.6 µM | 0.636 µM | IC50 (Cytochrome P450 1A2): > 50 µM; IC50 [17]: 4170 nM; Activity [18]: Non-Toxic; Activity [19]: Non-Toxic; Activity [20]: Non-Toxic; Activity [21]: Non-Toxic; Activity [22]: Non-Toxic
2 | CC(Sc1nc2ncccc2n1-c1ccc(C2CC2)c2ccccc12)C(=O)O (racemic) | Non-Toxic | Non-Toxic | Non-Toxic | Non-Toxic | Non-Toxic | Non-Toxic | Non-Toxic | Non-Toxic | Non-Toxic | Non-Toxic | Non-Toxic | Non-Toxic | 4.4 mL/min/kg | 2.7 h | 3910 ng·h/mL | 3480 ng·h/mL | > 50 µM | > 50 µM | 48.7 µM | 20 µM | IC50 (Cytochrome P450 1A2): > 50 µM; IC50 [17]: 1570 nM; Activity [18]: Non-Toxic; Activity [19]: Non-Toxic; Activity [20]: Non-Toxic; Activity [21]: Non-Toxic; Activity [22]: Non-Toxic
